Read-outs that look alike come from different tables or passages of the source.
Experiments:
Assay in all cases: biochemical
QacR [1] = target: T1, QacR (Staphylococcus aureus, UniProt P0A0N3, E120A)
QacR [2] = target: T2, QacR (Staphylococcus aureus, UniProt P0A0N3, E90A)
QacR [3] = target: T1, QacR; remark: listed apart in the source
QacR [4] = target: T2, QacR; remark: listed apart in the source

Structure (SMILES) | Kd (QacR [1]) [µM] | Kd (QacR [2]) [µM] | Kd (QacR [3]) [µM] | Kd (QacR [4]) [µM]
Cc1cc(N)c2ccccc2[n+]1CCCCCCCCCC[n+]1c(C)cc(N)c2ccccc21 [dequalinium] | 2.4 ± 0.6 | 1.8 ± 0.07 |  | 
CC[n+]1c(-c2ccccc2)c2cc(N)ccc2c2ccc(N)cc21 [ethidium] |  |  | 1.25 ± 0.15 | 1.03 ± 0.09
CCN=c1cc2oc3cc(NCC)c(C)cc3c(-c3ccccc3C(=O)OCC)c-2cc1C [rhodamine 6G] |  |  | 0.17 ± 0.01 | 0.21 ± 0.02
CN(C)c1ccc(C(=C2C=CC(=[N+](C)C)C=C2)c2ccccc2)cc1 [malachite green] |  |  | 0.98 ± 0.32 | 1.49 ± 0.1
